The source of these data is publication PMC2802518 (Biochemistry, 2009).

pIC50: −log10 of the molar value.

This assay has as its target T1, tCD14-His6 (truncated CD14) (Homo sapiens, UniProt P08571).
T1 sequence (P08571 20-175 limits assumed): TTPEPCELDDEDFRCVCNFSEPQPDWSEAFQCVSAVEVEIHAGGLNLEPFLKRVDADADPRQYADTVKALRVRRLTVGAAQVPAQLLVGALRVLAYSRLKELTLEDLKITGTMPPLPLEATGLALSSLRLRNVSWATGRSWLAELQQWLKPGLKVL
In kind it is binding.
For orientation: pIC50 means the IC50 on a negative log10 scale, so that one unit is a factor of ten. In the case of `CCCCCCCCCCCCCCO[C@H]1[C@@H](OC)O[C@H](C[N+](C)(C)C2CCCC2)[C@@H](O)[C@@H]1OCCCCCCCCCCCCCC` [compound 1, methyl 6-deoxy-6-N-dimethyl-N-cyclopentylamonium-2,3-di-O-tetradecyl-α-D-glucopyranoside], the pIC50 is 6.10. In turn, `CCCCCCCCCCCCCCO[C@H]1[C@@H](OC)O[C@H](CN)[C@@H](O)[C@@H]1OCCCCCCCCCCCCCC` [compound 2, methyl 6-deoxy-6-amino-2,3-di-O-tetradecyl-α-D-glucopyranoside] gave a pIC50 of 5.70. Under `CCCCCCCCCCCCCCOc1ccc(C[N+](C)(C)C2CCCC2)cc1OCCCCCCCCCCCCCC` [compound 3, N-(3,4-bis-tetradecyloxy-benzyl)-N-cyclopentyl-N,N-dimethylammonium] stands 6.40.
